Experimental data reported in patent EP1953147A1, “HETEROCYCLIC COMPOUND AND MEDICINAL APPLICATION THEREOF” (priority 2005, dated 2007).
Structures can show the parent of a compound that is named as a salt.

Test system: ΔG/SEAP/HCV E1E2
Test: Effect of test substance on cell infection with HCV pseudotype virus (SEAP reporter assay in HepG2 cells)
Type: cell-based
Settings: Hepatitis C virus

Row | Structure (SMILES) | IC50
1 | COc1cc(OC)cc(-c2nn(-c3cc(NCC(=O)N(C)C)ccc3C(F)(F)F)c(=O)c3c2CCC3)c1 [Example 125, 2-{3-[4-(3,5-dimethoxy-phenyl)-1-oxo-1,5,6,7-tetrahydro-cyclopenta[d]pyridazin-2-yl]-4-trifluoromethyl-phenylamino}-N,N-dimethyl-acetamide] | < 100 nM
2 | COC(=O)CNc1ccc(C(F)(F)F)c(-n2nc(-c3cc(OC)cc(OC)c3)c3c(c2=O)CCC3)c1 [Example 126, {3-[4-(3,5-dimethoxy-phenyl)-1-oxo-1,5,6,7-tetrahydro-cyclopenta[d]pyridazin-2-yl]-4-trifluoromethyl-phenylamino}-acetic acid methyl ester] | < 100 nM
3 | COc1cc(OC)cc(-c2nn(-c3cc(NCCCN)ccc3C(F)(F)F)c(=O)c3c2CCC3)c1 [Example 127, 2-[5-(3-amino-propylamino)-2-trifluoromethylphenyl]-4-(3,5-dimethoxy-phenyl)-2,5,6,7-tetrahydro-cyclopenta[d]pyridazin-1-one hydrochloride] | < 100 nM
4 | COc1cc(OC)cc(-c2nn(-c3cc(NCCCN(C)C)ccc3C(F)(F)F)c(=O)c3c2CCC3)c1 [Example 128, 4-(3,5-dimethoxy-phenyl)-2-[5-(3-dimethylamino-propylamino)-2-trifluoromethyl-phenyl]-2,5,6,7-tetrahydro-cyclopenta[d]pyridazin-1-one] | < 100 nM
5 | COc1cc(OC)cc(-c2nn(-c3cc(NCCCNC(=O)OC(C)(C)C)ccc3C(F)(F)F)c(=O)c3c2CCC3)c1 [Example 129, (3-{3-[4-(3,5-dimethoxy-phenyl)-1-oxo-1,5,6,7-tetrahydro-cyclopenta[d]pyridazin-2-yl]-4-trifluoromethyl-phenylamino}-propyl)-carbamic acid tert-butyl ester] | < 100 nM
6 | COc1cc(OC)cc(-c2nn(-c3cc(NCCCO)ccc3C(F)(F)F)c(=O)c3c2CCC3)c1 [Example 130, 4-(3,5-dimethoxy-phenyl)-2-[5-(3-hydroxy-propylamino)-2-trifluoromethyl-phenyl]-2,5,6,7-tetrahydro-cyclopenta[d]pyridazin-1-one] | < 100 nM
7 | COc1cc(OC)cc(-c2nn(-c3cc(NC(C)CO)ccc3C(F)(F)F)c(=O)c3c2CCC3)c1 (stereo not drawn) [Example 131, 4-(3,5-dimethoxy-phenyl)-2-[5-(2-hydroxy-1-methyl-ethylamino)-2-trifluoromethyl-phenyl]-2,5,6,7-tetrahydro-cyclopenta[d]pyridazin-1-one] | < 100 nM
8 | COc1cc(OC)cc(-c2nn(-c3cc(NCC(C)O)ccc3C(F)(F)F)c(=O)c3c2CCC3)c1 (stereo not drawn) [Example 132, 4-(3,5-dimethoxy-phenyl)-2-[5-(2-hydroxy-propylamino)-2-trifluoromethyl-phenyl]-2,5,6,7-tetrahydro-cyclopenta[d]pyridazin-1-one] | < 100 nM
9 | Cc1ccccc1-c1nn(-c2cc(N3CC[C@H](O)C3)ccc2C(F)(F)F)c(=O)c2c1CCC2 [Example 133, 2-[5-((S)-3-hydroxy-pyrrolidin-1-yl)-2-trifluoromethyl-phenyl]-4-o-tolyl-2,5,6,7-tetrahydro-cyclopenta[d]pyridazin-1-one] | 100 to 10000 nM
10 | COc1cc(OC)cc(-c2nn(-c3cc(Nc4ccccc4)ccc3C(F)(F)F)c(=O)c3c2CCC3)c1 [Example 134, 4-(3,5-dimethoxy-phenyl)-2-(5-phenylamino-2-trifluoromethyl-phenyl)-2,5,6,7-tetrahydro-cyclopenta[d]pyridazin-1-one] | 100 to 10000 nM
11 | COc1cc(OC)cc(-c2nn(-c3cc(NCc4ccccc4)ccc3C(F)(F)F)c(=O)c3c2CCC3)c1 [Example 135, 2-(5-benzylamino-2-trifluoromethyl-phenyl)-4-(3,5-dimethoxy-phenyl)-2,5,6,7-tetrahydro-cyclopenta[d]pyridazin-1-one] | 100 to 10000 nM
12 | COc1cc(OC)cc(-c2nn(-c3cc(NCCc4ccccc4)ccc3C(F)(F)F)c(=O)c3c2CCC3)c1 [Example 136, 4-(3,5-dimethoxy-phenyl)-2-(5-phenethylamino-2-trifluoromethyl-phenyl)-2,5,6,7-tetrahydro-cyclopenta[d]pyridazin-1-one] | < 100 nM
13 | COc1cc(OC)cc(-c2nn(-c3cc(NCCNS(C)(=O)=O)ccc3C(F)(F)F)c(=O)c3c2CCC3)c1 [Example 137, N-(2-{3-[4-(3,5-dimethoxy-phenyl)-1-oxo-1,5,6,7-tetrahydro-cyclopenta[d]pyridazin-2-yl]-4-trifluoromethyl-phenylamino}-ethyl)-methanesulfonamide] | < 100 nM
14 | CNC(=O)CCNc1ccc(C(F)(F)F)c(-n2nc(-c3cc(OC)cc(OC)c3)c3c(c2=O)CCC3)c1 [Example 138, 3-{3-[4-(3,5-dimethoxy-phenyl)-1-oxo-1,5,6,7-tetrahydro-cyclopenta[d]pyridazin-2-yl]-4-trifluoromethyl-phenylamino}-N-methyl-propionamide] | < 100 nM
15 | COc1cc(OC)cc(-c2nn(-c3cc(NCCC(=O)N(C)C)ccc3C(F)(F)F)c(=O)c3c2CCC3)c1 [Example 139, 3-{3-[4-(3,5-dimethoxy-phenyl)-1-oxo-1,5,6,7-tetrahydro-cyclopenta[d]pyridazin-2-yl]-4-trifluoromethyl-phenylamino}-N,N-dimethyl-propionamide] | < 100 nM
16 | COc1cc(OC)cc(-c2nn(-c3cc(NC4CC4)ccc3C(F)(F)F)c(=O)c3c2CCC3)c1 [Example 140, 2-(5-cyclopropylamino-2-trifluoromethyl-phenyl)-4-(3,5-dimethoxy-phenyl)-2,5,6,7-tetrahydro-cyclopenta[d]pyridazin-1-one] | < 100 nM
17 | COc1cc(OC)cc(-c2nn(-c3cc(NCC4CC4)ccc3C(F)(F)F)c(=O)c3c2CCC3)c1 [Example 141, 2-[5-(cyclopropylmethyl-amino)-2-trifluoromethylphenyl]-4-(3,5-dimethoxy-phenyl)-2,5,6,7-tetrahydro-cyclopenta[d]pyridazin-1-one] | < 100 nM
18 | COc1cc(OC)cc(-c2nn(-c3cc(NCCC(N)=O)ccc3C(F)(F)F)c(=O)c3c2CCC3)c1 [Example 142, 3-{3-[4-(3,5-dimethoxy-phenyl)-1-oxo-1,5,6,7-tetrahydro-cyclopenta[d]pyridazin-2-yl]-4-trifluoromethyl-phenylamino}-propionamide] | < 100 nM
19 | COC(=O)CCNc1ccc(C(F)(F)F)c(-n2nc(-c3cc(OC)cc(OC)c3)c3c(c2=O)CCC3)c1 [Example 143, 3-{3-[4-(3,5-dimethoxy-phenyl)-1-oxo-1,5,6,7-tetrahydro-cyclopenta[d]pyridazin-2-yl]-4-trifluoromethyl-phenylamino}-propionic acid methyl ester] | < 100 nM
20 | CC(C)Cc1nn(-c2cc(N3CC[C@H](O)C3)ccc2C(F)(F)F)c(=O)c2c1CCC2 [Example 144, 2-[5-((S)-3-hydroxy-pyrrolidin-1-yl)-2-trifluoromethyl-phenyl]-4-isobutyl-2,5,6,7-tetrahydro-cyclopenta[d]pyridazin-1-one] | 100 to 10000 nM
21 | COc1cc(OC)cc(-c2nn(-c3cc(N(C)CCCO)ccc3C(F)(F)F)c(=O)c3c2CCC3)c1 [Example 145, 4-(3,5-dimethoxy-phenyl)-2-{5-[(3-hydroxypropyl)-methyl-amino]-2-trifluoromethyl-phenyl}-2,5,6,7-tetrahydro-cyclopenta[d]pyridazin-1-one] | < 100 nM
22 | COc1cc(OC)cc(-c2nn(-c3cc(NC4CCCC4)ccc3C(F)(F)F)c(=O)c3c2CCC3)c1 [Example 146, 2-(5-cyclopentylamino-2-trifluoromethyl-phenyl)-4-(3,5-dimethoxy-phenyl)-2,5,6,7-tetrahydro-cyclopenta[d]pyridazin-1-one] | < 100 nM
23 | COc1cc(OC)cc(-c2nn(-c3cc(NCCC4CC4)ccc3C(F)(F)F)c(=O)c3c2CCC3)c1 [Example 147, 2-[5-(2-cyclopropyl-ethylamino)-2-trifluoromethyl-phenyl]-4-(3,5-dimethoxy-phenyl)-2,5,6,7-tetrahydro-cyclopenta[d]pyridazin-1-one] | < 100 nM
24 | COc1cc(OC)cc(-c2nn(-c3cc(NCC4CCCC4)ccc3C(F)(F)F)c(=O)c3c2CCC3)c1 [Example 148, 2-[5-(cyclopentylmethyl-amino)-2-trifluoromethylphenyl]-4-(3,5-dimethoxy-phenyl)-2,5,6,7-tetrahydro-cyclopenta[d]pyridazin-1-one] | 100 to 10000 nM
25 | COc1cc(OC)cc(-c2nn(-c3cc(CO)ccc3C(F)(F)F)c(=O)c3c2CCC3)c1 [Example 149, 4-(3,5-dimethoxy-phenyl)-2-(5-hydroxymethyl-2-trifluoromethyl-phenyl)-2,5,6,7-tetrahydro-cyclopenta[d]pyridazin-1-one] | < 100 nM
26 | COc1cc(OC)cc(-c2nn(-c3cc(N4CCCC4=O)ccc3C(F)(F)F)c(=O)c3c2CCC3)c1 [Example 150, 4-(3,5-dimethoxy-phenyl)-2-[5-(2-oxo-pyrrolidin-1-yl)-2-trifluoromethyl-phenyl]-2,5,6,7-tetrahydro-cyclopenta[d]pyridazin-1-one] | < 100 nM
27 | COc1cc(OC)cc(-c2nn(-c3cc(NCCCC(=O)O)ccc3C(F)(F)F)c(=O)c3c2CCC3)c1 [Example 151, 4-{3-[4-(3,5-dimethoxy-phenyl)-1-oxo-1,5,6,7-tetrahydro-cyclopenta[d]pyridazin-2-yl]-4-trifluoromethyl-phenylamino}-butyric acid] | < 100 nM
28 | COc1cc(OC)cc(-c2nn(-c3cc(NCCCC(N)=O)ccc3C(F)(F)F)c(=O)c3c2CCC3)c1 [Example 152, 4-{3-[4-(3,5-dimethoxy-phenyl)-1-oxo-1,5,6,7-tetrahydro-cyclopenta[d]pyridazin-2-yl]-4-trifluoromethyl-phenylamino}-butyramide] | < 100 nM
29 | CNC(=O)CCCNc1ccc(C(F)(F)F)c(-n2nc(-c3cc(OC)cc(OC)c3)c3c(c2=O)CCC3)c1 [Example 153, 4-{3-[4-(3,5-dimethoxy-phenyl)-1-oxo-1,5,6,7-tetrahydro-cyclopenta[d]pyridazin-2-yl]-4-trifluoromethyl-phenylamino}-N-methyl-butyramide] | < 100 nM
30 | COc1cc(OC)cc(-c2nn(-c3cc(NCCCC(=O)N(C)C)ccc3C(F)(F)F)c(=O)c3c2CCC3)c1 [Example 154, 4-{3-[4-(3,5-dimethoxy-phenyl)-1-oxo-1,5,6,7-tetrahydro-cyclopenta[d]pyridazin-2-yl]-4-trifluoromethyl-phenylamino}-N,N-dimethyl-butyramide] | < 100 nM
